Assay results from US20250059159A1, “PLPRO INHIBITORS” (SHANGHAI SYNERGY PHARMACEUTICAL SCIENCES CO., LTD., priority 2021, published 2025).
pIC50: −log10 of the molar value.

Biological target: SARS-CoV-2 PLpro (Severe acute respiratory syndrome coronavirus 2 (2019-nCoV) (SARS-CoV-2), UniProt P0DTD1)
Test: PLpro enzymatic inhibition assay (IC50 value determination)
Type: biochemical
Conditions: 60 min preincubation for covalent inhibitors, 10 min for non-covalent, read-out: Inhibition of SARS-CoV-2 PLpro IC50 range

Row | SMILES | pIC50
1 | COC(=O)/C=C/CNC(=O)CNC(=O)CN(C(=O)Cc1ccc2c(c1)OCO2)C1CCN(C(C)c2cccc3ccccc23)CC1 (centres unmarked) [Compound 1, methyl (E)-4-(2-(2-(2-(benzo[d][1,3]dioxol-5-yl)-N-(1-(1-(naphthalen-1-yl)ethyl)piperidin-4-yl)acetamido)acetamido)acetamido)but-2-enoate] | 6.00 to 7.00
2 | COC(=O)/C=C/CNC(=O)CNC(=O)CN(C(=O)Cc1ccc2c(c1)OCO2)C1CCN([C@H](C)c2cccc3ccccc23)CC1 [Compound 2, methyl (R,E)-4-(2-(2-(2-(benzo[d][1,3]dioxol-5-yl)-N-(1-(1-(naphthalen-1-yl)ethyl)piperidin-4-yl)acetamido)acetamido)acetamido)but-2-enoate] | 6.00 to 7.00
3 | COC(=O)/C=C/CNC(=O)CNC(=O)CN(C(=O)Cc1cccc(F)c1)C1CCN([C@H](C)c2cccc3ccccc23)CC1 [Compound 3, methyl (R,E)-4-(2-(2-(2-(3-fluorophenyl)-N-(1-(1-(naphthalen-1-yl)ethyl)piperidin-4-yl)acetamido)acetamido)acetamido)but-2-enoate] | 6.00 to 7.00
4 | COC(=O)/C=C/CNC(=O)CNC(=O)CN(C(=O)Cc1ccccc1)C1CCN(C(C)c2cccc3ccccc23)CC1 (centres unmarked) [Compound 4, methyl (E)-4-(2-(2-(N-(1-(1-(naphthalen-1-yl)ethyl)piperidin-4-yl)-2-phenylacetamido)acetamido)acetamido)but-2-enoate] | 6.00 to 7.00
5 | COC(=O)/C=C/CNC(=O)CNC(=O)CN(C(=O)C1CC1)C1CCN([C@H](C)c2cccc3ccccc23)CC1 [Compound 5, methyl (R,E)-4-(2-(2-(N-(1-(1-(naphthalen-1-yl)ethyl)piperidin-4-yl)cyclopropanecarboxamido)acetamido)acetamido)but-2-enoate] | > 7.00
6 | COC(=O)/C=C/CNC(=O)CNC(=O)CN(C(=O)C1CCC1)C1CCN(C(C)c2cccc3ccccc23)CC1 (centres unmarked) [Compound 6, methyl (E)-4-(2-(2-(N-(1-(1-(naphthalen-1-yl)ethyl)piperidin-4-yl)cyclobutanecarboxamido)acetamido)acetamido)but-2-enoate] | > 7.00
7 | COC(=O)/C=C/CNC(=O)CNC(=O)CN(C(=O)C1CCC1)C1CCN([C@H](C)c2cccc3ccccc23)CC1 [Compound 7, methyl (R,E)-4-(2-(2-(N-(1-(1-(naphthalen-1-yl)ethyl)piperidin-4-yl)cyclobutanecarboxamido)acetamido)acetamido)but-2-enoate] | 6.00 to 7.00
8 | CC(c1cccc2ccccc12)N1CCC(N(CC(=O)NCC(=O)NC/C=C/C(N)=O)C(=O)C2CCC2)CC1 (centres unmarked) [Compound 8, (E)-N-(2-((2-((4-amino-4-oxobut-2-en-1-yl)amino)-2-oxoethyl)amino)-2-oxoethyl)-N-(1-(1-(naphthalen-1-yl)ethyl)piperidin-4-yl)cyclobutanecarboxamide] | 6.00 to 7.00
9 | CC(c1cccc2ccccc12)N1CCC(N(CC(=O)NCC(=O)NC/C=C/S(C)(=O)=O)C(=O)C2CCC2)CC1 (centres unmarked) [Compound 9, (E)-N-(2-((2-((3-(methylsulfonyl)allyl)amino)-2-oxoethyl)amino)-2-oxoethyl)-N-(1-(1-(naphthalen-1-yl)ethyl)piperidin-4-yl)cyclobutanecarboxamide] | 6.00 to 7.00
10 | COC(=O)/C=C/CNC(=O)CNC(=O)CN(C(=O)C1CCCC1)C1CCN([C@H](C)c2cccc3ccccc23)CC1 [Compound 10, methyl (R,E)-4-(2-(2-(N-(1-(1-(naphthalen-1-yl)ethyl)piperidin-4-yl)cyclopentanecarboxamido)acetamido)acetamido)but-2-enoate] | 6.00 to 7.00
11 | COC(=O)/C=C/CNC(=O)CNC(=O)CN(C(=O)C1CCCCC1)C1CCN([C@H](C)c2cccc3ccccc23)CC1 [Compound 11, methyl (R,E)-4-(2-(2-(N-(1-(1-(naphthalen-1-yl)ethyl)piperidin-4-yl)cyclohexanecarboxamido)acetamido)acetamido)but-2-enoate] | 6.00 to 7.00
12 | C#CCNC(=O)CNC(=O)CNC1CCN([C@H](C)c2cccc3ccccc23)CC1 [Compound 12, (R)-2-((1-(1-(naphthalen-1-yl)ethyl)piperidin-4-yl)amino)-N-(2-oxo-2-(prop-2-yn-1-ylamino)ethyl)acetamide] | 6.00 to 7.00
13 | COC(=O)/C=C/CNC(=O)CNC(=O)CN(C(C)=O)C1CCN(C(C)c2cccc3ccccc23)CC1 (centres unmarked) [Compound 13, methyl (E)-4-(2-(2-(N-(1-(1-(naphthalen-1-yl)ethyl)piperidin-4-yl)acetamido)acetamido)acetamido)but-2-enoate] | > 7.00
14 | COC(=O)/C=C/CNC(=O)CNC(=O)CN(C(=O)C(F)(F)F)C1CCN([C@H](C)c2cccc3ccccc23)CC1 [Compound 14, methyl (R,E)-4-(2-(2-(2,2,2-trifluoro-N-(1-(1-(naphthalen-1-yl)ethyl)piperidin-4-yl)acetamido)acetamido)acetamido)but-2-enoate] | 6.00 to 7.00
15 | CCC(=O)N(CC(=O)NCC(=O)NC/C=C/C(=O)OC)C1CCN(C(C)c2cccc3ccccc23)CC1 (centres unmarked) [Compound 15, methyl (E)-4-(2-(2-(N-(1-(1-(naphthalen-1-yl)ethyl)piperidin-4-yl)propionamido)acetamido)acetamido)but-2-enoate] | > 7.00
16 | COC(=O)/C=C/CNC(=O)CNC(=O)CN(C(=O)CC(F)(F)F)C1CCN(C(C)c2cccc3ccccc23)CC1 (centres unmarked) [Compound 16, methyl (E)-4-(2-(2-(3,3,3-trifluoro-N-(1-(1-(naphthalen-1-yl)ethyl)piperidin-4-yl)propanamido)acetamido)acetamido)but-2-enoate] | 6.00 to 7.00
17 | COC(=O)/C=C/CNC(=O)CNC(=O)CN(C(=O)C(C)C)C1CCN([C@H](C)c2cccc3ccccc23)CC1 [Compound 17, methyl (R,E)-4-(2-(2-(N-(1-(1-(naphthalen-1-yl)ethyl)piperidin-4-yl)isobutyramido)acetamido)acetamido)but-2-enoate] | 6.00 to 7.00
18 | CCCC(=O)N(CC(=O)NCC(=O)NC/C=C/C(=O)OC)C1CCN([C@H](C)c2cccc3ccccc23)CC1 [Compound 18, methyl (R,E)-4-(2-(2-(N-(1-(1-(naphthalen-1-yl)ethyl)piperidin-4-yl)butyramido)acetamido)acetamido)but-2-enoate] | > 7.00
19 | COC(=O)/C=C/CNC(=O)CNC(=O)CN(C(=O)CC(C)C)C1CCN([C@H](C)c2cccc3ccccc23)CC1 [Compound 19, methyl (R,E)-4-(2-(2-(3-methyl-N-(1-(1-(naphthalen-1-yl)ethyl)piperidin-4-yl)butanamido)acetamido)acetamido)but-2-enoate] | > 7.00
20 | COC(=O)/C=C/CNC(=O)CNC(=O)CN(C1CCN([C@H](C)c2cccc3ccccc23)CC1)S(N)(=O)=O [Compound 22, methyl (R,E)-4-(2-(2-((1-(1-(naphthalen-1-yl)ethyl)piperidin-4-yl)(sulfamoyl)amino)acetamido)acetamido)but-2-enoate] | > 7.00
21 | COC(=O)/C=C/CNC(=O)CNC(=O)CN(C1CCN([C@H](C)c2cccc3ccccc23)CC1)S(=O)(=O)NC(=O)OC(C)(C)C [Compound 23, methyl (R,E)-4-(2-(2-((N-(tert-butoxycarbonyl)sulfamoyl)(1-(1-(naphthalen-1-yl)ethyl)piperidin-4-yl)amino)acetamido)acetamido)but-2-enoate] | 6.00 to 7.00
22 | COC(=O)/C=C/CNC(=O)CNC(=O)CNC1CCN([C@H](C)c2cccc3ccccc23)CC1 [Compound 24, methyl (R,E)-4-(2-(2-((1-(1-(naphthalen-1-yl)ethyl)piperidin-4-yl)amino)acetamido)acetamido)but-2-enoate] | 6.00 to 7.00
23 | COC(=O)/C=C/CNC(=O)CNC(=O)CN(C)C1CCN([C@H](C)c2cccc3ccccc23)CC1 [Compound 25, methyl (R,E)-4-(2-(2-(methyl(1-(1-(naphthalen-1-yl)ethyl)piperidin-4-yl)amino)acetamido)acetamido)but-2-enoate] | > 7.00
24 | COC(=O)/C=C/CNC(=O)CNC(=O)[C@H](CN)NC1CCN([C@H](C)c2cccc3ccccc23)CC1 [Compound 26, methyl (E)-4-(2-((S)-3-amino-2-((1-((R)-1-(naphthalen-1-yl)ethyl)piperidin-4-yl)amino)propanamido)acetamido)but-2-enoate] | 6.00 to 7.00
25 | COC(=O)/C=C/CNC(=O)CNC(=O)[C@H](CNC(=O)OC(C)(C)C)NC1CCN([C@H](C)c2cccc3ccccc23)CC1 [Compound 27, methyl (S,E)-2,2-dimethyl-7-((1-((R)-1-(naphthalen-1-yl)ethyl)piperidin-4-yl)amino)-4,8,11-trioxo-3-oxa-5,9,12-triazahexadec-14-en-16-oate] | 5.00 to 6.00
26 | COC(=O)/C=C/CNC(=O)CNC(=O)[C@@H](C)NC1CCN([C@H](C)c2cccc3ccccc23)CC1 [Compound 28, methyl (E)-4-(2-((R)-2-((1-((R)-1-(naphthalen-1-yl)ethyl)piperidin-4-yl)amino)propanamido)acetamido)but-2-enoate] | 5.00 to 6.00
27 | COC(=O)/C=C/CNC(=O)CNC(=O)C[C@H](NCc1ccc2c(c1)OCO2)C1CCN(C(C)c2cccc3ccccc23)CC1 (stereo partly drawn) [Compound 29, methyl (E)-4-(2-((3S)-3-((benzo[d][1,3]dioxol-5-ylmethyl)amino)-3-(1-(1-(naphthalen-1-yl)ethyl)piperidin-4-yl)propanamido)acetamido)but-2-enoate] | 6.00 to 7.00
28 | C#CCNC(=O)CCNC(=O)CN(C1CCN([C@H](C)c2cccc3ccccc23)CC1)S(C)(=O)=O [Compound 57, (R)-3-(2-(N-(1-(1-(naphthalen-1-yl)ethyl)piperidin-4-yl)methylsulfonamido)acetamido)-N-(prop-2-yn-1-yl)propanamide] | 6.00 to 7.00
29 | C[C@H](c1cccc2ccccc12)N1CCC(N(CC(=O)NCC(=O)NC/C=C/S(C)(=O)=O)S(C)(=O)=O)CC1 [Compound 59, (R,E)-N-(3-(methylsulfonyl)allyl)-2-(2-(N-(1-(1-(naphthalen-1-yl)ethyl)piperidin-4-yl)methylsulfonamido)acetamido)acetamide] | 6.00 to 7.00
